Results reported in patent US4067142A, “Echinatin glycosides and their preparation” (Kabushiki Kaisha Hayashibara Seibutsu Kagaku Kenkyujo, priority 1975, dated 1978).
Values after ≈ are worked out from the molar mass of the structure shown.

How the values were obtained:
[1] = water solubility at 15° C; type: physicochemical; conditions: for solubility: water
[2] = test system: human lymphoblastoid cells (E.B. -3 cells, Burkitt lymphoma); assay: inhibiting action on the growth of human lymphoblastoid cells (E.B.-3, Burkitt lymphoma) in suspension culture, cell count; type: cell-based; conditions: 100 μg per ml medium, added on the fourth day of cultivation; R.P.M.I. 1640 + 30% fetal calf serum, 37° C; vs non-added culture
Protocol: Human lymphoblastoid cells (E.B. -3 cells, Burkitt lymphoma) were grown in suspension culture and maintained in 2 ml R.P.M.I. 1640 medium (manufactured by Flow Laboratories Inc., U.S.A.) supplemented with 30% fetal calf serum, placed in Petri's dish, diameter 20 mm at a temperature of 37° C.
The numbers of human lymphoblastoid cells were counted according to the method used for counting the numbers of leucocyte with Burke's blood count platelet.

[3] = 15° C, parts or percentages by weight

| Compound | solubility [1, 3] [µg/mL] | water solubility, in words ([1]; temperature not stated) | water solubility [1, 3] | inhibiting action on the growth of human lymphoblastoid cells [2] |
| --- | --- | --- | --- | --- |
| COc1cc(O[C@@H]2O[C@H](CO)[C@@H](O)[C@H](O)[C@H]2O)ccc1/C=C/C(=O)c1ccc(O[C@@H]2O[C@H](CO)[C@@H](O)[C@H](O)[C@H]2O)cc1 [echinatin-4,4'-diglucoside] | ~5000 (≈ 8410 µM) | – | – | – |
| COc1cc(O[C@@H]2O[C@H](CO)[C@@H](O)[C@H](O)[C@H]2O)ccc1/C=C/C(=O)c1ccc(O)cc1 [echinatin-4-glucoside] | ~1000 (≈ 2310 µM) | – | – | – |
| COc1cc(O)ccc1/C=C/C(=O)c1ccc(O)cc1 [echinatin] | < 1 | extremely low water solubility | – | – |
| echinatin-4'-glucoside | – | – | approximately 1% | possesses an inhibiting action on the growth of human lymphoblastoid cells |
